From ChEMBL document CHEMBL3044711, “Synthesis, characterization, and antimicrobial activity of some new 2-diazo-benzimidazole derivatives and their Ni(II), Cu(II), and Ag(I) complexes” (2013)
Calls of active or inactive are those of the source. The calls are words filed in the database; no cut-off is given here.

Key:
Type in all cases: functional
Bacillus subtilis = test: Antimicrobial activity against Bacillus subtilis assessed as diameter of growth inhibition zone at 1 mg/ml after 24 hr by nutrient agar well diffusion method; conditions: for zone of inhibition at 1000 µg/mL: read-out: DIZ
Aspergillus niger = test: Antimicrobial activity against Aspergillus niger assessed as diameter of growth inhibition zone at 1 mg/ml after 48 hr by potato dextrose agar well diffusion method
Staphylococcus aureus = test: Antimicrobial activity against Staphylococcus aureus assessed as diameter of growth inhibition zone at 1 mg/ml after 24 hr by nutrient agar well diffusion method; conditions: for zone of inhibition at 1000 µg/mL: read-out: DIZ
Candida albicans = test: Antimicrobial activity against Candida albicans assessed as diameter of growth inhibition zone at 1 mg/ml after 48 hr by potato dextrose agar well diffusion method
Klebsiella pneumoniae = test: Antimicrobial activity against Klebsiella pneumoniae assessed as diameter of growth inhibition zone at 1 mg/ml after 24 hr by nutrient agar well diffusion method
Escherichia coli = test: Antimicrobial activity against Escherichia coli assessed as diameter of growth inhibition zone at 1 mg/ml after 24 hr by nutrient agar well diffusion method; conditions: read-out: DIZ

Molecule | inhibition (Klebsiella pneumoniae) | zone of inhibition at 1000 µg/mL (Escherichia coli) [mm] | zone of inhibition at 1000 µg/mL (Bacillus subtilis) [mm] | zone of inhibition at 1000 µg/mL (Staphylococcus aureus) [mm] | also measured
N#CC(C#N)/N=N/c1nc2ccccc2[nH]1 | inactive | 10.8 | – | – | inhibition (Bacillus subtilis): inactive; inhibition (Aspergillus niger): inactive; inhibition (Staphylococcus aureus): inactive; inhibition (Candida albicans): inactive
CC1(C)S[C@@H]2[C@H](NC(=O)[C@H](N)c3ccccc3)C(=O)N2[C@H]1C(=O)O [AMPICILLIN] | inactive | 31.2 | 29.5 | 30.5 | –
CCOC(=O)C(C#N)/N=N/c1nc2ccccc2[nH]1 (stereo not drawn) | – | 8.5 | 8 | 7.5 | zone of inhibition at 1000 µg/mL (Aspergillus niger; read-out: DIZ): 8.5 mm; zone of inhibition at 1000 µg/mL (Candida albicans; read-out: DIZ): 9 mm; zone of inhibition at 1000 µg/mL (Klebsiella pneumoniae; read-out: DIZ): 9 mm
NYSTATIN | – | – | – | – | inhibition zone (IZ) (Aspergillus niger): 25 mm; inhibition zone (IZ) (Candida albicans): 36 mm
